Results as given in patent publication US12319679B2, “Morpholinyl, piperazinyl, oxazepanyl and diazepanyl O-glycoprotein-2-acetamido-2-deoxy-3-d-glucopyranosidase inhibitors” (BIOGEN MA INC., priority 2018, dated 2025).
Where a name gives a salt, the structure may show the parent alone.

Molecular target: T1, Recombinant full length human OGA enzyme (Homo sapiens, UniProt O60502)
T1 construct: Recombinant full length human OGA enzyme was purchased from Origene; purchased Origene
T1 sequence (O60502 1-916): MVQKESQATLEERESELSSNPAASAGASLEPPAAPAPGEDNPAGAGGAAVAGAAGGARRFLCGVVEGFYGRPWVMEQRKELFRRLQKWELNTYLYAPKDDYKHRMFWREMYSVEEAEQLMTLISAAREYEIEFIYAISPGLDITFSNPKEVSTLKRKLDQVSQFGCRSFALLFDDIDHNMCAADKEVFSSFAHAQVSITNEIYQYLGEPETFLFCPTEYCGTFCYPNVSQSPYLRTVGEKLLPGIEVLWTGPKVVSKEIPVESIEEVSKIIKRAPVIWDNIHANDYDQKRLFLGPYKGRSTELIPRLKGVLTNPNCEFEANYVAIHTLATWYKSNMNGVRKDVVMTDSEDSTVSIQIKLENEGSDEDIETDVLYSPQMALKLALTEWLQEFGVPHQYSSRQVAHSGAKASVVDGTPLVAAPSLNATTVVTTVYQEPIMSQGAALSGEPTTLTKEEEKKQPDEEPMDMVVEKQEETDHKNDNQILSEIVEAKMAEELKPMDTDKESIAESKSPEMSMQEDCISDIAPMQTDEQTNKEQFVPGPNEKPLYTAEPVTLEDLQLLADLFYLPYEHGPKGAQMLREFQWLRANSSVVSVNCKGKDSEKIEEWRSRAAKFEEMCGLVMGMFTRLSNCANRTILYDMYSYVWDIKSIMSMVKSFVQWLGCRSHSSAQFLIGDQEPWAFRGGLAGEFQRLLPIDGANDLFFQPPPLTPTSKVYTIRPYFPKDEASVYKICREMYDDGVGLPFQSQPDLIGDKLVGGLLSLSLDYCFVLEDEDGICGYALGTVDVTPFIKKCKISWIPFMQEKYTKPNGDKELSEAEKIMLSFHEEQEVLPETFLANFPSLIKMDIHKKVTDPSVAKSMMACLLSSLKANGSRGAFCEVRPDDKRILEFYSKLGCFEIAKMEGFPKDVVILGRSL
Assay: OGA Enzyme Inhibition Biochemical Assay
Details: 1 nM OGA, 100 μM 4-MUGlcNAc (Km), pH 6.4, 90 minutes at room temperature; 10-point dose-response starting from 20 μM
Description: OGA Enzyme Inhibition Biochemical Assay
Recombinant full length human OGA enzyme was purchased from Origene. 4-MUGlCNAc substrate was purchased from Sigma. All other reagents were purchased from Sigma or Fisher. Assay buffer consists of the McIlvaine buffer system, pH 6.4 (0.2M Na2HPO4 mixed with 0.1M citric acid) and 0.01% BSA. Reactions consist of 1 nM OGA, 100 μM 4-MUGlcNAc (Km), and compound in a final volume of 10 μl. Reactions were incubated for 90 minutes at room temperature and quenched with 40 μl of 3M glycine, pH 10 and read on a Perkin Elmer Envision plate reader (Ex: 355 nm/Em: 460 nm). Compounds were tested with a 10-point dose-response starting from 20 μM with a 4-fold dilution. Data was fit using GraphPad Prism using a 4-paramter fit with variable slope.

IC50 [nM] | SMILES
150 | CC(=O)Nc1ncc(CN2C[C@H](Cc3ncc(F)cn3)OC[C@@H]2C)s1 [Example 1-28, N-(5-(((2S,5S)-2-((5-fluoropyrimidin-2-yl)methyl)-5-methylmorpholino)methyl)thiazol-2-yl)acetamide]
130 | COc1cc(C[C@@H]2CN(Cc3cnc(NC(C)=O)s3)CCO2)ncn1 [Example 1-8, (R)—N-(5-((2-((6-methoxypyrimidin-4-yl)methyl)morpholino)methyl)thiazol-2-yl)acetamide]
56 | COc1nccc(C[C@@H]2CN(Cc3cnc(NC(C)=O)s3)CCO2)c1F [Example 1-15, (R)—N-(5-((2-((3-fluoro-2-methoxypyridin-4-yl)methyl)morpholino)methyl)thiazol-2-yl)acetamide]
110 | CC(=O)Nc1ncc(CN2CCO[C@H](Cc3ccc(C)nc3)C2)s1 [Example 1-19, (R)—N-(5-((2-((6-methylpyridin-3-yl)methyl)morpholino)methyl)thiazol-2-yl)acetamide]
16 | CC(=O)Nc1ncc(CN2CCO[C@H](Cc3ncc(F)cn3)C2)s1 [Example 1-1, (R)—N-(5-((2-((5-fluoropyrimidin-2-yl)methyl)morpholino)methyl)thiazol-2-yl)acetamide]
1000 | COc1cc(CC2COCCN(Cc3cnc(NC(C)=O)s3)C2)ccn1 (single isomer, unassigned) [Example 1-47 Peak 1]
5900 | CC(=O)Nc1ncc(CN2C[C@@H](Cc3cc(C)nc(C)c3)N(C(C)=O)C[C@@H]2C)s1 [Example 2-15, N-(5-(((2S,5R)-4-acetyl-5-((2,6-dimethylpyridin-4-yl)methyl)-2-methylpiperazin-1-yl)methyl)thiazol-2-yl)acetamide]
> 20000 | CC(=O)Nc1ncc(CN2CCN(C)[C@H](Cc3ccnc(C)c3)C2)s1 [Example 4-9, (R)—N-(5-((4-methyl-3-((2-methylpyridin-4-yl)methyl)piperazin-1-yl)methyl)thiazol-2-yl)acetamide]
31 | CC(=O)Nc1ncc(CN2CCCOC(Cc3cc(C)nc(C)c3)C2)s1 (single isomer, unassigned) [Example 1-37 Peak 1]
21 | CC(=O)Nc1ncc(CN2C[C@@H](COc3cc(C)nc(C)c3)NC[C@@H]2C)s1 [Example 3-1, N-(5-(((2S,5S)-5-(((2,6-dimethylpyridin-4-yl)oxy)methyl)-2-methylpiperazin-1-yl)methyl)thiazol-2-yl)acetamide]
1500 | CC(=O)Nc1ncc(CN2CCO[C@H](Cc3ccnc(C(F)(F)F)n3)C2)s1 [Example 1-9]
7000 | CC(=O)Nc1ncc(CN2CCN[C@H](Cc3cc(C)nc(C)c3)C2)s1 [Example 4-1, (R)—N-(5-((3-((2,6-dimethylpyridin-4-yl)methyl)piperazin-1-yl)methyl)thiazol-2-yl)acetamide hydrochloride]
42 | COc1cc(CC2COCCN(Cc3cnc(NC(C)=O)s3)C2)ccn1 (racemic) [Example 1-46, N-(5-((6-((2-methoxypyridin-4-yl)methyl)-1,4-oxazepan-4-yl)methyl)thiazol-2-yl)acetamide]
4400 | CC(=O)Nc1ncc(CN2CCNC(Cc3ccc(C)nc3)C2)s1 (single isomer, unassigned) [Example 4-14 Peak 2]
11000 | COc1cc(C[C@H]2CN(Cc3cnc(NC(C)=O)s3)CCO2)ccn1 [Example 1-4, (S)—N-(5-((2-((2-methoxypyridin-4-yl)methyl)morpholino)methyl)thiazol-2-yl)acetamide]
110 | CC(=O)Nc1ncc(CN2CCCOC(Cc3cc(C)nc(C)c3)C2)s1 (single isomer, unassigned) [Example 1-37 Peak 2]
160 | CC(=O)Nc1ncc(CN2CCOC(C(C)c3ncc(F)cn3)C2)s1 (single isomer, unassigned) [Example 1-25 Peak 3]
22 | CC(=O)Nc1ncc(CN2C[C@@H](Cc3cc(C)nc(C)n3)NC[C@@H]2C)s1 [Example 2-13]
> 20000 | CC(=O)Nc1ncc(CN2CCCN(C(C)=O)C(Cc3cc(C)nc(C)c3)C2)s1 (stereo not shown) [Example 2-29, N-(5-((4-acetyl-3-((2,6-dimethylpyridin-4-yl)methyl)-1,4-diazepan-1-yl)methyl)thiazol-2-yl)acetamide]

IC50 [nM] | SMILES
130 | CCOc1cc(C[C@@H]2CN(Cc3cnc(NC(C)=O)s3)CCO2)ccn1 [Example 1-11, (R)—N-(5-((2-((2-ethoxypyridin-4-yl)methyl)morpholino)methyl)thiazol-2-yl)acetamide]
180 | CC(=O)Nc1ncc(CN2CCO[C@H](Cc3ccnc(C)n3)C2)s1 [Example 1-14, (R)—N-(5-((2-((2-methylpyrimidin-4-yl)methyl)morpholino)methyl)thiazol-2-yl)acetamide]
5.3 | CC(=O)Nc1ncc(CN2CCOC(C(C)c3ncc(F)cn3)C2)s1 (single isomer, unassigned) [Example 1-25 Peak 1]
140 | CC(=O)Nc1nc(F)c(CN2CCO[C@H](Cc3ccc(C)nc3)C2)s1 [Example 1-48, (R)—N-(4-fluoro-5-((2-((6-methylpyridin-3-yl)methyl)morpholino)methyl)thiazol-2-yl)acetamide]
12000 | CC(=O)Nc1ncc(CN2C[C@H](Cc3ncc(F)cn3)OC[C@H]2C)s1 [Example 1-29, N-(5-(((2S,5R)-2-((5-fluoropyrimidin-2-yl)methyl)-5-methylmorpholino)methyl)thiazol-2-yl)acetamide]
7.5 | COc1cc(C[C@@H]2CN(Cc3cnc(NC(C)=O)s3)[C@@H](C)CN2)ccn1 [Example 2-14, N-(5-(((2S,5R)-5-((2-methoxypyridin-4-yl)methyl)-2-methylpiperazin-1-yl)methyl)thiazol-2-yl)acetamide]
9.1 | CC(=O)Nc1ncc(CN2C[C@@H](Cc3cc(C)nc(C)c3)NC[C@@H]2C)s1 [Example 2-8, N-(5-(((2S,5R)-5-((2,6-dimethylpyridin-4-yl)methyl)-2-methylpiperazin-1-yl)methyl)thiazol-2-yl)acetamide]
14 | CC(=O)Nc1ncc(CN2CCOCC(Cc3ncc(F)cn3)C2)s1 (single isomer, unassigned) [Example 1-45 Peak 2]
14000 | COc1nccc(CC2CN(Cc3cnc(NC(C)=O)s3)CCN2)c1F (single isomer, unassigned) [Example 4-18 Peak 1]
19 | CC(=O)Nc1ncc(CN2CCOCC(Cc3cc(C)nc(C)c3)C2)s1 (racemic) [Example 1-42, N-(5-((6-((2,6-dimethylpyridin-4-yl)methyl)-1,4-oxazepan-4-yl)methyl)thiazol-2-yl)acetamide]
270 | CC(=O)Nc1ncc(CN2CCO[C@H](Cc3ccnc(OC(C)C)c3)C2)s1 [Example 1-12, (R)—N-(5-((2-((2-isopropoxypyridin-4-yl)methyl)morpholino)methyl)thiazol-2-yl)acetamide]
17 | COc1cc(CC2COCCN(Cc3cnc(NC(C)=O)s3)C2)ccn1 (single isomer, unassigned) [Example 1-47 Peak 2]
17000 | COc1cc(C[C@@H]2CN(Cc3cnc(NC(C)=O)s3)[C@@H](C)CO2)ccn1 [Example 1-30, N-(5-(((2R,5S)-2-((2-methoxypyridin-4-yl)methyl)-5-methylmorpholino)methyl)thiazol-2-yl)acetamide]
270 | COc1cc(CC2CN(Cc3cnc(NC(C)=O)s3)CCCO2)ccn1 (single isomer, unassigned) [Example 1-41 Peak 2]
32 | CC(=O)Nc1ncc(CN2CCOCC(Cc3ncc(F)cn3)C2)s1 (racemic) [Example 1-44, N-(5-((6-((5-fluoropyrimidin-2-yl)methyl)-1,4-oxazepan-4-yl)methyl)thiazol-2-yl)acetamide]
260 | CC(=O)Nc1ncc(CN2CCO[C@H](Cc3ccnc(C(F)F)c3)C2)s1 [Example 1-13]
11000 | CC(=O)Nc1ncc(CN2C[C@@H](COc3cc(C)nc(C)c3)N(C(C)=O)C[C@@H]2C)s1 [Example 3-3]
19 | CC(=O)Nc1ncc(CN2CCOCC(Cc3cc(C)nc(C)c3)C2)s1 (single isomer, unassigned) [Example 1-43 Peak 1]
